The record followed here is patent EP4711368A1 (priority 2023, dated 2024).

SMILES strings stand for the structures. Read-outs that look alike come from different tables or passages of the source. A value given as a limit tells only on which side of the number the result lay.

One may read the minimal effective dose as the smallest amount tested that counted as effective.

For data set [1], the system named is SD rats. Kind of data set: animal or person. The class given is in vivo. To be noted: iv; for minimal effective dose: Rattus norvegicus; for Onset time / Righting feflex duration / Sedation Duration: rat, in vivo.
Data set [2] concerns SD rats. The note with it: rat, in vivo; for MLD: iv.
The mark [3] stands for this setting: read-out: Minimal effective anesthetic dose.
Wherever Onset time is given: test concentration or dose not given here.
Wherever Righting feflex duration is given: test concentration or dose not given here.
Wherever Sedation Duration is given: test concentration or dose not given here.

For the compound `CC(C)n1nnc(CCN2N=C(c3ccccn3)c3cc(Br)ccc3N(C)C2=O)n1` [Compound 267], the minimal effective dose in data set [1] (setting [3]) was found to be 20 mg/kg. Moreover, in data set [1], the Onset time came out at 0.72 min, the Righting feflex duration was found to be 0.28 min and the “Sedation Duration” value is listed as 12.33 min. Moreover, in data set [2] (SD), the TI was 2 and the MLD is reported as 40 mg/kg.

In the case of `COc1nonc1CCN1N=C(c2ccccn2)c2cc(Br)ccc2N(C)C1=O` [Compound 273], the minimal effective dose in data set [1] (setting [3]) worked out at 10 mg/kg. In data set [1], the Onset time lay within 0.25 to 0.27 min, the Righting feflex duration is 2.38 to 9.68 min and the “Sedation Duration” value was 43.97 to 44.82 min. Further, in data set [2] (SD), the TI is more than 2 and the MLD is more than 20 mg/kg.

For the compound `CCOc1nonc1CCN1N=C(c2ccccn2)c2cc(Br)ccc2N(C)C1=O` [Compound 274], the minimal effective dose in data set [1] (setting [3]) is 27.4 mg/kg. For the same compound, in data set [1], the Onset time was 0.18 min, the Righting feflex duration came out at 4.57 min and the “Sedation Duration” value is listed as 25.87 min. In data set [2] (SD), this compound showed a TI of more than 1 and an MLD of more than 27.4 mg/kg.

For `CC(C)Oc1nonc1CCN1N=C(c2ccccn2)c2cc(Br)ccc2N(C)C1=O` [Compound 275], the minimal effective dose in data set [1] (setting [3]) turned out to be 30 mg/kg. In data set [1], this compound gave an Onset time of 0.93 to 4.90 min and a Righting feflex duration of 6.37 to 17.25 min. For the same compound, in data set [2] (SD), the TI is listed as more than 2 and the MLD was more than 60 mg/kg.

On to `CC(C)C(=O)CN1N=C(c2ccccn2)c2cc(Br)ccc2N(C)C1=O` [Compound 279], for which, in data set [1] (setting [3]), the minimal effective dose came out at 15 mg/kg. In data set [1], the Onset time is 0.35 min, the Righting feflex duration is given as 3.77 min and the “Sedation Duration” value was 62.22 min. Moreover, the TI in data set [2] (SD) amounted to 1.3. In data set [2], this compound came in with an MLD of 20 mg/kg.

In the case of `CN1C(=O)N(CCc2cccs2)N=C(c2ccccn2)c2cc(Br)ccc21` [Compound 284], the minimal effective dose in data set [1] (setting [3]) is 40 mg/kg. In data set [1], the Onset time was 0.2 min, the Righting feflex duration was determined as 20 min and the “Sedation Duration” value turned out to be 70.72 min. In data set [2] (SD), this compound displayed a TI of more than 1 and an MLD of more than 40 mg/kg.

Consider `CN1C(=O)N(COCc2ccccc2)N=C(c2ccccn2)c2cc(Br)ccc21` [Compound 286], for which the minimal effective dose in data set [1] (setting [3]) is 2.5 mg/kg. Besides, in data set [1], the Onset time lay within 1.32 to 3.20 min, the Righting feflex duration lay in the range of 3.38 to 9.38 min and the “Sedation Duration” value lay in the range of 42.15 to 64.37 min. In data set [2] (SD), this compound yielded a TI of 3 and an MLD of 7.5 mg/kg.

`CC(C)C(=O)OCN1N=C(c2ccccn2)c2cc(Br)ccc2N(C)C1=O` [Compound 287]: the minimal effective dose in data set [1] (setting [3]) is 10 mg/kg. In data set [1], the Onset time lay within 0.32 to 0.43 min, the Righting feflex duration lay within 0.63 to 7.53 min and the “Sedation Duration” value was in the range of 44.20 to 46.25 min. Moreover, in data set [2] (SD), the TI is 3 and the MLD is reported as 30 mg/kg.

Turning to `CN1C(=O)N(COC(=O)CCl)N=C(c2ccccn2)c2cc(Br)ccc21` [Compound 288], in data set [1] (setting [3]), the minimal effective dose amounted to 15 mg/kg. Moreover, in data set [1], the Onset time is on record as 0.80 min, the Righting feflex duration is 2.45 min and the “Sedation Duration” value was determined as 33.18 min. In data set [2] (SD), this compound came in with a TI of 1.3 and an MLD of 20 mg/kg.

Consider `CC(C)OC(=O)OCN1N=C(c2ccccn2)c2cc(Br)ccc2N(C)C1=O` [Compound 289], for which the minimal effective dose in data set [1] (read-out: Minimal effective analgesic dose) came out at 20 mg/kg. In addition, the minimal effective dose in data set [1] (setting [3]) came to 5 mg/kg. In data set [1], the Onset time is 0.15 to 0.68 min, the Righting feflex duration lay within 0.53 to 32.23 min and the “Sedation Duration” value fell in the range of 20.27 to 311.87 min. For the same compound, in data set [2] (SD), the TI stood at 8.3 and the MLD amounted to 41.7 mg/kg.
